For 30 compounds, IC50 and EC50 results are on record in patent US11634396B2 (priority 2021, dated 2023).

Bounds are passed on as bounds.

human mOR, sequence (P35372 whole entry): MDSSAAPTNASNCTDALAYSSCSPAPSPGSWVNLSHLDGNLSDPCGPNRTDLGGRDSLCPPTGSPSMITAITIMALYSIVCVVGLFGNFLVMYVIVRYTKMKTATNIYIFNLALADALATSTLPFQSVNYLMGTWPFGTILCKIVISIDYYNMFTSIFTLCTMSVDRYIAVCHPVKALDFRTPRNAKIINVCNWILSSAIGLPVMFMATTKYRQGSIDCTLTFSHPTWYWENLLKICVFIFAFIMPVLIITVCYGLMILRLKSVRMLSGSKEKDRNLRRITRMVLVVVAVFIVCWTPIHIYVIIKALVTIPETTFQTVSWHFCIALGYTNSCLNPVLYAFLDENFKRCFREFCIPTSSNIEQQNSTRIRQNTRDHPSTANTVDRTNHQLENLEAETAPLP
human dOR, sequence (P41143 whole entry): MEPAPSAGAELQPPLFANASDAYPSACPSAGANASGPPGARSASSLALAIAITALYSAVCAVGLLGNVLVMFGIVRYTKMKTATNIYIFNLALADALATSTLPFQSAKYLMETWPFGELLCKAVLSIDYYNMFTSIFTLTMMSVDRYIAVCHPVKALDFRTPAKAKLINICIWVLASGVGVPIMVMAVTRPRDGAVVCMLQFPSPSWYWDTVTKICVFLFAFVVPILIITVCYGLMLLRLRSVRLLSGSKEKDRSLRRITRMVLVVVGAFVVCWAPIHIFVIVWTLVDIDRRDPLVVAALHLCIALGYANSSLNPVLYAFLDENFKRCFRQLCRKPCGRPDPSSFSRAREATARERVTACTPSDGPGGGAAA

One test concerns the target human mOR (Homo sapiens (Human), UniProt P35372). The test is described as follows: cell-based.
Details: not given
By IC50 is commonly meant the concentration that gives 50% inhibition. For `CN(C)[C@H](CNC(=O)CC(c1ccncc1)C1(C(F)(F)F)CC1)Cc1ccc(O)c(Cl)c1` (stereo partly drawn) [Compound 284, N-((S)-3-(3-chloro-4-hydroxyphenyl)-2-(dimethylamino)propyl)-3-(pyridin-4-yl)-3-(1-(trifluoromethyl)cyclopropyl)propanamide], the IC50 is under 300 nM.

As for `CN(C)[C@H](CNC(=O)CC(c1ncccn1)C1(C(F)(F)F)CC1)Cc1ccc(O)c(Cl)c1` (stereo partly drawn) [Compound 285, N-((S)-3-(3-chloro-4-hydroxyphenyl)-2-(dimethylamino)propyl)-3-(pyrimidin-2-yl)-3-(1-(trifluoromethyl)cyclopropyl)propanamide], the half-inhibitory concentration (IC50) is under 300 nM.

For the compound `CN(C)[C@H](CNC(=O)C[C@H](CC1CC1)c1cccnc1)Cc1ccc(O)c(Cl)c1` [Compound 286, (S)-N-((S)-3-(3-chloro-4-hydroxyphenyl)-2-(dimethylamino)propyl)-4-cyclopropyl-3-(pyridin-3-yl)butanamide], the IC50 was under 300 nM.

As for `CN(C)[C@H](CNC(=O)CC(c1cccnc1)C1(C(F)(F)F)CC1)Cc1ccc(O)c(Cl)c1` (stereo partly drawn) [Compound 287, N-((S)-3-(3-chloro-4-hydroxyphenyl)-2-(dimethylamino)propyl)-3-(pyridin-3-yl)-3-(1-(trifluoromethyl)cyclopropyl)propanamide], the IC50 was under 300 nM.

`CN(C)[C@H](CNC(=O)C[C@H](c1cccnc1)C1(C(F)(F)F)CC1)Cc1ccc(O)c(F)c1` [Compound 290, (R)-N-((S)-2-(dimethylamino)-3-(3-fluoro-4-hydroxyphenyl)propyl)-3-(pyridin-3-yl)-3-(1-(trifluoromethyl)cyclopropyl)propanamide]: the half-maximal inhibitory concentration (IC50) was under 300 nM.

`CN(C)[C@H](CNC(=O)CC(c1cccnc1)C1(C(F)(F)F)CC1)Cc1ccc(O)cc1` (stereo partly drawn) [Compound 291, N-((S)-2-(dimethylamino)-3-(4-hydroxyphenyl)propyl)-3-(pyridin-3-yl)-3-(1-(trifluoromethyl)cyclopropyl)propanamide]: the IC50 is under 300 nM.

`Cc1ccc([C@@H](CC(=O)NC[C@H](Cc2ccc(O)cc2)N(C)C)C2(C(F)(F)F)CC2)s1` [Compound 293, (S)-N-((S)-2-(dimethylamino)-3-(4-hydroxyphenyl)propyl)-3-(5-methylthiophen-2-yl)-3-(1-(trifluoromethyl)cyclopropyl)propanamide]: the IC50 was under 300 nM.

On to `CN(C)[C@H](CNC(=O)C[C@H](c1ccsc1)C1(C(F)(F)F)CC1)Cc1ccc(O)cc1` [Compound 294, (S)-N-((S)-2-(dimethylamino)-3-(4-hydroxyphenyl)propyl)-3-(thiophen-3-yl)-3-(1-(trifluoromethyl)cyclopropyl)propanamide], for which the half-inhibitory concentration (IC50) was under 300 nM.

With `Cc1ncc([C@@H](CC(=O)NC[C@H](Cc2ccc(O)cc2)N(C)C)C2(C(F)(F)F)CC2)s1` [Compound 295, (S)-N-((S)-2-(dimethylamino)-3-(4-hydroxyphenyl)propyl)-3-(2-methylthiazol-5-yl)-3-(1-(trifluoromethyl)cyclopropyl)propanamide], the concentration for half-maximal inhibition (IC50) was under 300 nM.

With `CN(C)[C@H](CNC(=O)C[C@H](c1cncs1)C1(C(F)(F)F)CC1)Cc1ccc(O)cc1` [Compound 296, (S)-N-((S)-2-(dimethylamino)-3-(4-hydroxyphenyl)propyl)-3-(thiazol-5-yl)-3-(1-(trifluoromethyl)cyclopropyl)propanamide], the IC50 is under 300 nM.

Regarding `CC(C)C[C@H](CC(=O)NC[C@H](Cc1ccc(O)cc1)N(C)C)c1cccnc1` [Compound 297, (R)-N-((S)-2-(dimethylamino)-3-(4-hydroxyphenyl)propyl)-5-methyl-3-(pyridin-3-yl)hexanamide], the IC50 is under 300 nM.

Turning to `CN(C)[C@H](CNC(=O)C[C@H](CC1CC1)c1ccncc1)Cc1ccc(O)cc1` [Compound 298, (S)-4-cyclopropyl-N-((S)-2-(dimethylamino)-3-(4-hydroxyphenyl)propyl)-3-(pyridin-4-yl)butanamide], the IC50 was under 300 nM.

As for `Cc1cc([C@@H](CC(=O)NC[C@H](Cc2ccc(O)cc2)N(C)C)C2(C(F)(F)F)CC2)ccn1` [Compound 299, (R)-N-((S)-2-(dimethylamino)-3-(4-hydroxyphenyl)propyl)-3-(2-methylpyridin-4-yl)-3-(1-(trifluoromethyl)cyclopropyl) propanamide], the concentration for half-maximal inhibition (IC50) was under 300 nM.

With `Cc1cncc([C@@H](CC(=O)NC[C@H](Cc2ccc(O)cc2)N(C)C)C2(C(F)(F)F)CC2)c1` [Compound 300, (R)-N-((S)-2-(dimethylamino)-3-(4-hydroxyphenyl)propyl)-3-(5-methylpyridin-3-yl)-3-(1-(trifluoromethyl)cyclopropyl)propanamide], the IC50 is under 300 nM.

For `Cc1ccc([C@@H](CC(=O)NC[C@H](Cc2ccc(O)cc2)N(C)C)C2(C(F)(F)F)CC2)cn1` [Compound 302, (R)-N-((S)-2-(dimethylamino)-3-(4-hydroxyphenyl)propyl)-3-(6-methylpyridin-3-yl)-3-(1-(trifluoromethyl)cyclopropyl) propanamide], the IC50 was under 300 nM.

As to `CN(C)[C@H](CNC(=O)C[C@H](c1cccnc1)C1(C)CC1)Cc1ccc(O)cc1` [Compound 303, (S)-N-((S)-2-(dimethylamino)-3-(4-hydroxyphenyl)propyl)-3-(1-methylcyclopropyl)-3-(pyridin-3-yl)propanamide], the half-inhibitory concentration (IC50) was under 300 nM.

`CC(C)[C@H](CC(=O)NC[C@H](Cc1ccc(O)cc1)N(C)C)c1cccnc1` [Compound 304, (S)-N-((S)-2-(dimethylamino)-3-(4-hydroxyphenyl)propyl)-4-methyl-3-(pyridin-3-yl)pentanamide]: the IC50 was under 300 nM.

For `CN(C)[C@H](CNC(=O)C[C@H](c1cccnc1)C1(C(F)(F)F)CC1)Cc1ccc(O)cc1` [Compound 306, (R)-N-((S)-2-(dimethylamino)-3-(4-hydroxyphenyl)propyl)-3-(pyridin-3-yl)-3-(1-(trifluoromethyl)cyclopropyl)propanamide], the half-inhibitory concentration (IC50) was under 300 nM.

As to `CN(C)[C@H](CNC(=O)C[C@@H](CC1CC1)c1cncnc1)Cc1ccc(O)cc1` [Compound 307, (R)-4-cyclopropyl-N-((S)-2-(dimethylamino)-3-(4-hydroxyphenyl)propyl)-3-(pyrimidin-5-yl)butanamide], the IC50 was under 300 nM.

`CN(C)[C@H](CNC(=O)CC(c1ccncc1)C1(C(F)(F)F)CC1)Cc1ccc(O)cc1` (stereo partly drawn) [Compound 309, N-((S)-2-(dimethylamino)-3-(4-hydroxyphenyl)propyl)-3-(pyridin-4-yl)-3-(1-(trifluoromethyl)cyclopropyl)propanamide]: the IC50 was under 300 nM.

With `CN(C)[C@H](CNC(=O)C[C@@H](CC1CC1)c1cccnc1)Cc1ccc(O)cc1` [Compound 310, (R)-4-cyclopropyl-N-((S)-2-(dimethylamino)-3-(4-hydroxyphenyl)propyl)-3-(pyridin-3-yl)butanamide], the IC50 was under 300 nM.

Regarding `Cc1ncc([C@@H](CC(=O)NC[C@H](Cc2ccc(O)cc2)N(C)C)C2(C(F)(F)F)CC2)cn1` [Compound 312, (R)-N-((S)-2-(dimethylamino)-3-(4-hydroxyphenyl)propyl)-3-(2-methylpyrimidin-5-yl)-3-(1-(trifluoromethyl)cyclopropyl)propanamide], the IC50 is under 300 nM.

Turning to `CN(C)[C@H](CNC(=O)CC(c1ncccn1)C1(C(F)(F)F)CC1)Cc1ccc(O)cc1` (stereo partly drawn) [Compound 313, N-((S)-2-(dimethylamino)-3-(4-hydroxyphenyl)propyl)-3-(pyrimidin-2-yl)-3-(1-(trifluoromethyl)cyclopropyl)propanamide], the half-inhibitory concentration (IC50) was under 300 nM.

Consider `CN(C)[C@H](CNC(=O)CC(c1ccc(C(F)(F)F)nc1)C1(C(F)(F)F)CC1)Cc1ccc(O)cc1` (stereo partly drawn) [Compound 314, N-((S)-2-(dimethylamino)-3-(4-hydroxyphenyl)propyl)-3-(1-(trifluoromethyl)cyclopropyl)-3-(6-(trifluoromethyl)pyridin-3-yl)propanamide], for which the IC50 was under 300 nM.

Consider `Cc1cc([C@@H](CC(=O)NC[C@H](Cc2ccc(O)cc2)N(C)C)C2(C(F)(F)F)CC2)cs1` [Compound 322, (S)-N-((S)-2-(dimethylamino)-3-(4-hydroxyphenyl)propyl)-3-(5-methylthiophen-3-yl)-3-(1-(trifluoromethyl)cyclopropyl)propanamide], for which the half-inhibitory concentration (IC50) is under 300 nM.

The same test, now with this note: CHO Tag-lite human mOR stable cell line; forskolin 4 μM and DAMGO at EC90; read-out: mOR cAMP Antagonist Assay IC50.
Turning to `CN(C)[C@H](CNC(=O)C[C@H](c1cncs1)C1CC1)Cc1ccc(O)cc1` [Compound 292, (S)-3-cyclopropyl-N-((S)-2-(dimethylamino)-3-(4-hydroxyphenyl)propyl)-3-(thiazol-5-yl)propanamide], the concentration for half-maximal inhibition (IC50) was 300 to 3000 nM.

Regarding `CN(C)[C@H](CNC(=O)C[C@H](c1cccnc1)C1CC1)Cc1ccc(O)cc1` [Compound 308, (S)-3-cyclopropyl-N-((S)-2-(dimethylamino)-3-(4-hydroxyphenyl)propyl)-3-(pyridin-3-yl)propanamide], the IC50 fell in the range of 300 to 3000 nM.

Take `Cc1ncc([C@@H](CC(=O)NC[C@H](Cc2ccc(O)cc2)N(C)C)C2CC2)cn1` [Compound 311, (S)-3-cyclopropyl-N-((S)-2-(dimethylamino)-3-(4-hydroxyphenyl)propyl)-3-(2-methylpyrimidin-5-yl)propanamide]: the IC50 lay within 300 to 3000 nM.

Regarding `Cc1cnc([C@@H](CC(=O)NC[C@H](Cc2ccc(-c3nnc[nH]3)cc2)N(C)C)C2(C(F)(F)F)CC2)s1` [Compound 325, (S)-N-((S)-3-(4-(4H-1,2,4-triazol-3-yl)phenyl)-2-(dimethylamino)propyl)-3-(5-methylthiazol-2-yl)-3-(1-(trifluoromethyl)cyclopropyl) propanamide], the IC50 is 300 to 3000 nM.

A further test addresses human dOR (Homo sapiens (Human), UniProt P41143). The test is described as follows: cell-based. The following applies: dOR cAMP Agonist Assay EC50, CHO Tag-lite human dOR stable cell line; forskolin.
For orientation: EC50 means the concentration giving half of the maximal effect. In the case of `CN(C)[C@H](CNC(=O)C[C@@H](c1ccccc1)C(C)(C)C)Cc1ccc(C(N)=O)cc1` [Compound 95, 4-((S)-3-((R)-4,4-dimethyl-3-phenylpentanamido)-2-(dimethylamino)propyl)benzamide], the EC50 was over 3000 nM.
